Source: ChEMBL document CHEMBL1201862, “PubChem BioAssay data set” (2004)
Where a name gives a salt, the structure may show the parent alone. Activity calls are given as the source filed them.

What was measured:
Candida albicans [1] = test: Candida growth inhibition combined with fluconazole – CaCi-2 strain, Alamar Blue, dry powder, set 3, dose response (AID 488907); type: functional, organism-based
Candida albicans [2] = test: resistant Candida growth with fluconazole co-treatment – CaCi-8 strain, Alamar Blue, dry powder, set 3, dose response (AID 488905); type: functional, organism-based
HeLa = test: ATP-based viability loss in HeLa cells – cell-based, CellTiter-Glo luminescence, cherry-pick samples, cytotoxicity control for MITF activator project, dose response (AID 540259); type: functional; conditions: Homo sapiens
[3] = biological target: T1, Sentrin-specific protease 6 (Homo sapiens, UniProt Q9GZR1); type: functional
T1 sequence (Q9GZR1 whole entry): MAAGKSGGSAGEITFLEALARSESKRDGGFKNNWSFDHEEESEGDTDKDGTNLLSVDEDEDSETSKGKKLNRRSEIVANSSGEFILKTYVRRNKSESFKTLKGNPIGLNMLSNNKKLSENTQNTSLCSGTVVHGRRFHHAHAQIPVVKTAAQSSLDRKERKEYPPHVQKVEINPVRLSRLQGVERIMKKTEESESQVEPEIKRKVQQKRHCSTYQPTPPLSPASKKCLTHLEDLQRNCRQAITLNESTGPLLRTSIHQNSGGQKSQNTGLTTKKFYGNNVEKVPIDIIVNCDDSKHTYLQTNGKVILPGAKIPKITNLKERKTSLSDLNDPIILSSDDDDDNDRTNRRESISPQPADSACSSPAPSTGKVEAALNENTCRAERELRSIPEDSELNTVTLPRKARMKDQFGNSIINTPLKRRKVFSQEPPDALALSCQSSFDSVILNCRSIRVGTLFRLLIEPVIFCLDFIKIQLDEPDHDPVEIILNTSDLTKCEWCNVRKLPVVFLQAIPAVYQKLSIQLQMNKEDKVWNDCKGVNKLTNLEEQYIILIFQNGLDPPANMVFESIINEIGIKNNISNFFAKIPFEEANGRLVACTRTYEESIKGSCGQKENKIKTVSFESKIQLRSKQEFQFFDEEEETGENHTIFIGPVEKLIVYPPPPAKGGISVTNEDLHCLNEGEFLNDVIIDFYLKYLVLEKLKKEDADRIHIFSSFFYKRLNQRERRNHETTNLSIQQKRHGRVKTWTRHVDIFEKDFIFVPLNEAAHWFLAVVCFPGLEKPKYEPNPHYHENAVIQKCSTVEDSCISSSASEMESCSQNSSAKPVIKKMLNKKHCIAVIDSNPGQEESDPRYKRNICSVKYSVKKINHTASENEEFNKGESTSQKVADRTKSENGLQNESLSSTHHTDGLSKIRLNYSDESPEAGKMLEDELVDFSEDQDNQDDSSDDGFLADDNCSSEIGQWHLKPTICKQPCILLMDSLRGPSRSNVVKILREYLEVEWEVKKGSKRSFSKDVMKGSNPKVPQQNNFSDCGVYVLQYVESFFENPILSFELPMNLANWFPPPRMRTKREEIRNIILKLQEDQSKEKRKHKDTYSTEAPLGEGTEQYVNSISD

Caspase-3 [4] = biological target: T2, Caspase-3 (Homo sapiens, UniProt P42574); type: functional
T2 sequence (P42574 whole entry): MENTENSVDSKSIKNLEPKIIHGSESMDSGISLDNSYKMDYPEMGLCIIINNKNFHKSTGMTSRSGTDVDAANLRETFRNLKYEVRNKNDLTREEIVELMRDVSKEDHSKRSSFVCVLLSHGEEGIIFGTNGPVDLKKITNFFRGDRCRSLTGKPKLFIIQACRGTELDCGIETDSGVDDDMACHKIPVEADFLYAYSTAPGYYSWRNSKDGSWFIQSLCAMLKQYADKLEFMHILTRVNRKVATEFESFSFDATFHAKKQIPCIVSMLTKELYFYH

[5] = biological target: T3, Sentrin-specific protease 7 (Homo sapiens, UniProt Q9BQF6); type: functional;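 further: Luminescence-based dose-response confirmation of ultra-high-throughput screening hits, measuring inhibition of SENP7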
T3 sequence (Q9BQF6 whole entry): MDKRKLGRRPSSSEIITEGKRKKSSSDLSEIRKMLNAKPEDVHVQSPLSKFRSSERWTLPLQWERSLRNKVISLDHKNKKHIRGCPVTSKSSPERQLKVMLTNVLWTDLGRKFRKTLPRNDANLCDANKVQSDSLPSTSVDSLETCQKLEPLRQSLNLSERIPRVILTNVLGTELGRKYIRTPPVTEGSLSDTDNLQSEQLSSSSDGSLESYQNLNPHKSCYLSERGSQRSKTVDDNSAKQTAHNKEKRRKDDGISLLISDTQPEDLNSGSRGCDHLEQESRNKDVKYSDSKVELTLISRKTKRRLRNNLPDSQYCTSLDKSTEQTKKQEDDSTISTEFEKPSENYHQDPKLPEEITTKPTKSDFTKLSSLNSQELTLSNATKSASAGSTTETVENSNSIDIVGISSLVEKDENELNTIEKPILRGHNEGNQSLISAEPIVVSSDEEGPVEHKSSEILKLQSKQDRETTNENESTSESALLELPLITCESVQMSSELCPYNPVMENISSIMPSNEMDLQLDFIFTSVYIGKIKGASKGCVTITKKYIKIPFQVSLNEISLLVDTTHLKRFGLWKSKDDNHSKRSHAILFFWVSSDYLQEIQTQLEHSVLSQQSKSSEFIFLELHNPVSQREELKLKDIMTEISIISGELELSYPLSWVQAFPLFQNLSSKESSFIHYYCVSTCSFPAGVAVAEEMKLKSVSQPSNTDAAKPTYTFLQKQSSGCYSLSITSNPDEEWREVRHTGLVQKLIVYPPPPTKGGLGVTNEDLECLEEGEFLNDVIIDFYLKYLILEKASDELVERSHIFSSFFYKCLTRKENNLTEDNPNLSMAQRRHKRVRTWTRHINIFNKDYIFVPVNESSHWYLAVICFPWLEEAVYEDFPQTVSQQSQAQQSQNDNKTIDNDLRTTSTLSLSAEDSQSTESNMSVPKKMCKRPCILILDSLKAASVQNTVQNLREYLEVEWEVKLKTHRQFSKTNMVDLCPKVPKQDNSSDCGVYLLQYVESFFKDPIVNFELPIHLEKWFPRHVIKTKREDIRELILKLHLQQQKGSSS

[6] = biological target: T4, Sentrin-specific protease 8 (Homo sapiens, UniProt Q96LD8); type: functional;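 further: luminescence read-out of SENP8 inhibition, dose-response confirmation following an ultra-high-throughput screen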
T4 sequence (Q96LD8 whole entry): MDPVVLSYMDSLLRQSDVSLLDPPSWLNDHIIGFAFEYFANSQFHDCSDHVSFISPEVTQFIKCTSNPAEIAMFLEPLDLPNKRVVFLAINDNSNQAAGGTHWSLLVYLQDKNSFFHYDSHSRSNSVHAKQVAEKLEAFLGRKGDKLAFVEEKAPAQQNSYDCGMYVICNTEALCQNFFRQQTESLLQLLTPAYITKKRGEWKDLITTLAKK

[7] = biological target: Dual specificity tyrosine-phosphorylation-regulated kinase 1A (Rattus norvegicus, UniProt Q63470); type: biochemical, Homo sapiens
[8] = biological target: Dual specificity protein kinase CLK1 (Homo sapiens, UniProt P49759); test: inhibition of human CLK1 activity – biochemical, cherry-picked samples, selectivity assay for Dyrk1A inhibitor project, dose response (AID 588811)
[9] = biological target: Delta-type opioid receptor (Homo sapiens, UniProt P41143); test: Counterscreen for agonists of heterodimerization of the mu 1 (OPRM1) and delta 1 (OPRD1) opioid receptors: Luminescence-based cell-based high throughput dose response assay to identify agonists of OPRD1 homodimerization. [Related pubchem assays (depositor defined):AID504326, AID504355, AID504692, AID504904, AID504905]; type: functional
[10] = viability loss in CEM21 cells – cell-based, CellTiter-Glo luminescence, cherry-picked, cytotoxicity control for viral fusion inhibitor project, dose response (AID 652042); type: functional;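 further: potency for signal decrease meaning cytotoxicity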
[11] = blockers of HIV-1 envelope-mediated cell-cell fusion – cherry-pick, dose response (AID 652057); type: functional, cell-based
Mu-type opioid receptor = Mu-type opioid receptor (Homo sapiens, UniProt P35372); test: Counterscreen for agonists of heterodimerization of the mu 1 (OPRM1) and delta 1 (OPRD1) opioid receptors: Luminescence-based cell-based high throughput dose response assay to identify agonists of OPRM1 homodimerization.; type: functional;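 further: U2OS cells expressing OPRM1 and beta-arrestin as split beta-galactosidase partners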
[12] = biological target: 5-hydroxytryptamine receptor 5A (Homo sapiens, UniProt P47898); test: Counterscreen for agonists of OPRM1-OPRD1 heterodimerization: luminescence-based cell-based high throughput dose response assay to identify agonists of 5-hydroxytryptamine (serotonin) 5A receptor (HTR5A). [Related pubchem assays (depositor defined):AID504326, AID504355, AID504692, AID504904, AID504905]; type: functional
[13] = blockers of HIV-1 ZM109 envelope-driven cell-cell fusion – HeLa effector, CEM target cells, luciferase, cherry-pick, dose response (AID 652058); type: functional, cell-based;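 further: luciferase signal from HIV-1 Env mediated cell-cell fusion of effector and target cells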
[14] = biological target: T5, Endoribonuclease toxin MazF (Escherichia coli K-12, UniProt P0AE70); test: activation of MazEF endoribonuclease cleavage – biochemical, fluorescence, single-stranded RNA substrate, uHTS hits, dose response (AID 588481); type: functional
[15] = biological target: T5, Endoribonuclease toxin MazF; test: substrate-only fluorescence increase artefacts – biochemical, single-stranded RNase substrate, counter-screen for MazEF activator project, dose response (AID 588502); type: functional
Cytochrome P450 2C19 = Cytochrome P450 2C19 (Homo sapiens, UniProt P33261); test: Cytochrome panel assay with activity outcomes. Panel member name: p450-cyp2c19 Compounds with AC50 equal or less than 10 uM are considered active; type: functional
HEK293 [16] = test: membrane integrity loss in HEK cells – cell-based, fluorescence, cytotoxicity control for IDE activator project, dose response (AID 588440); type: functional; conditions: Homo sapiens;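 further: cytotoxicity by LDH release measuring loss of membrane integrity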
HEK293 [17] = test: optical interference in Abeta FP readout, dose response, artefact control for IDE activator project, biochemical, fluorescence polarization (AID 588442); type: functional, cell-based; conditions: Homo sapiens
Insulin-degrading enzyme [18] = biological target: T6, Insulin-degrading enzyme (Homo sapiens, UniProt P14735); test: recombinant IDE activation, cell-free – biochemical, fluorescence polarization, counter-screen for IDE activator project, dose response (AID 588681)
Insulin-degrading enzyme [19] = biological target: T6, Insulin-degrading enzyme; test: cellular IDE activation of Abeta substrate cleavage – fluorescence polarization, HEK cells, dose response (AID 588439); type: functional, cell-based
Beta-galactosidase = Beta-galactosidase (Escherichia coli, UniProt Q8VNN2); test: PubChem AID 485352; type: functional
[20] = biological target: Type-1 angiotensin II receptor (Homo sapiens, UniProt P30556); test: antagonism of angiotensin II type 1 receptor – cell-based, uHTS hits, selectivity assay for APJ receptor antagonist project, dose response (AID 463214); type: functional;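 further: antagonist potency against angiotensin II stimulated AT1 response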
Phospholipase D1 = Phospholipase D1 (Homo sapiens, UniProt Q13393); test: cellular phospholipase D1 inhibition IC50 – cell-based, dose response (AID 602151); type: functional;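 further: cellular PLD1 assay in Calu-1 cells stimulated with PMA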
Phospholipase D2 = Phospholipase D2 (Homo sapiens, UniProt O14939); test: cellular phospholipase D2 inhibition IC50 – cell-based, dose response (AID 602147); type: functional;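 further: cellular assay in HEK293 cells overexpressing GFP-tagged PLD2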
Caspase-3 [21] = biological target: T2, Caspase-3; test: SAR Analysis of small molecule inhibitors of Sentrin-specific proteases (SENPs) using a Caspase-3 Selectivity assay. [Related pubchem assays (depositor defined):AID2540, AID2599, AID434973, AID489001]; type: functional
[22] = biological target: T4, Sentrin-specific protease 8; test: inhibition of human SENP8 cleavage activity – biochemical, luminescence, SAR follow-up (AID 504501); type: functional
[23] = biological target: T3, Sentrin-specific protease 7; test: inhibition of human SENP7 cleavage activity – biochemical, luminescence, SAR follow-up (AID 504497); type: functional
[24] = biological target: T1, Sentrin-specific protease 6; test: SAR Analysis of small molecule inhibitors of Sentrin-specific protease 6 (SENP6) using a Luminescent assay. [Related pubchem assays (depositor defined):AID2582, AID2599]; type: functional
[25] = biological target: Voltage-gated inwardly rectifying potassium channel KCNH2 (Homo sapiens, UniProt Q12809); conditions: Potency;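 further: confirmatory quantitative high-throughput screen measuring inhibition of hERG channel activity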

T5 sequence (P0AE70 whole entry): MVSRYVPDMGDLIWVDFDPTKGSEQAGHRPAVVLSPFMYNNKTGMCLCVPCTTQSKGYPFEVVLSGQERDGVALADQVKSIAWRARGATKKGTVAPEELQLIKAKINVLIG
T6 sequence (P14735 whole entry): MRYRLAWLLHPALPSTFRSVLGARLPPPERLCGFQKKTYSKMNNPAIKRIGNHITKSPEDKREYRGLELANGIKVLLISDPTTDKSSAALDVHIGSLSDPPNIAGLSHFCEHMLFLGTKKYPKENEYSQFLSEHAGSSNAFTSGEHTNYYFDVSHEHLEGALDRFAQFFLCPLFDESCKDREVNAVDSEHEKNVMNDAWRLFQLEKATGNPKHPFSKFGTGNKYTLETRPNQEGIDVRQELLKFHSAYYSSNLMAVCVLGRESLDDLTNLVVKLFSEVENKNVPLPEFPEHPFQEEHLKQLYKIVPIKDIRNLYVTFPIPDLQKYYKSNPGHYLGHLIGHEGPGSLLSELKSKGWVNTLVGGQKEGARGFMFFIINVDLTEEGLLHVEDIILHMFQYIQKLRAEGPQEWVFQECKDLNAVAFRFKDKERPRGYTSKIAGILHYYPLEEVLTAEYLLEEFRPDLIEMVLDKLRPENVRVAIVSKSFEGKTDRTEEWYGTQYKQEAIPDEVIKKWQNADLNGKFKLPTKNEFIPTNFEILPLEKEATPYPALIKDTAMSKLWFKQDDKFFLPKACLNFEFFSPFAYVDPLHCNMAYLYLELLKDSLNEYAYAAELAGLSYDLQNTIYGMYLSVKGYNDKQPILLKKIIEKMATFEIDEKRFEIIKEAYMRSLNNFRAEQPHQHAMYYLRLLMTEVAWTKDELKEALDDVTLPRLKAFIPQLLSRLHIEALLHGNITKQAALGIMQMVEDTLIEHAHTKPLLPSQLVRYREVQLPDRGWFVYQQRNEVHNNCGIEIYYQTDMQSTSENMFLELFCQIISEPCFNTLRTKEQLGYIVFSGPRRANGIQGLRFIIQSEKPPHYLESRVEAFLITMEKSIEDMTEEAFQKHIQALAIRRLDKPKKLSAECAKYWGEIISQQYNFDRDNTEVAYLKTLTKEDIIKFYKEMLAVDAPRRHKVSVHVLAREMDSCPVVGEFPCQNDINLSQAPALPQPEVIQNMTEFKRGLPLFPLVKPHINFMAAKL
Chain of Delta-type opioid receptor (P41143 whole entry, the tested form may be a part): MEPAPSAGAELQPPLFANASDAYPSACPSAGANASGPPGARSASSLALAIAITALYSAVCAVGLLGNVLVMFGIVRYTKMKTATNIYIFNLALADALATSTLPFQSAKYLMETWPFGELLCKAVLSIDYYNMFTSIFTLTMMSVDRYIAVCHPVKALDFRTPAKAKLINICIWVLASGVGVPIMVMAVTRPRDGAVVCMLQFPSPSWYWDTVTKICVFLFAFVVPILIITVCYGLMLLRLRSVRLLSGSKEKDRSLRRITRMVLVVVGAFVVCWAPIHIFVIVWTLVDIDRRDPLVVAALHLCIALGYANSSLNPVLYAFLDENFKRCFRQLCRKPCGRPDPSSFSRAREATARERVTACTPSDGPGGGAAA
Chain of Beta-galactosidase (Q8VNN2 whole entry): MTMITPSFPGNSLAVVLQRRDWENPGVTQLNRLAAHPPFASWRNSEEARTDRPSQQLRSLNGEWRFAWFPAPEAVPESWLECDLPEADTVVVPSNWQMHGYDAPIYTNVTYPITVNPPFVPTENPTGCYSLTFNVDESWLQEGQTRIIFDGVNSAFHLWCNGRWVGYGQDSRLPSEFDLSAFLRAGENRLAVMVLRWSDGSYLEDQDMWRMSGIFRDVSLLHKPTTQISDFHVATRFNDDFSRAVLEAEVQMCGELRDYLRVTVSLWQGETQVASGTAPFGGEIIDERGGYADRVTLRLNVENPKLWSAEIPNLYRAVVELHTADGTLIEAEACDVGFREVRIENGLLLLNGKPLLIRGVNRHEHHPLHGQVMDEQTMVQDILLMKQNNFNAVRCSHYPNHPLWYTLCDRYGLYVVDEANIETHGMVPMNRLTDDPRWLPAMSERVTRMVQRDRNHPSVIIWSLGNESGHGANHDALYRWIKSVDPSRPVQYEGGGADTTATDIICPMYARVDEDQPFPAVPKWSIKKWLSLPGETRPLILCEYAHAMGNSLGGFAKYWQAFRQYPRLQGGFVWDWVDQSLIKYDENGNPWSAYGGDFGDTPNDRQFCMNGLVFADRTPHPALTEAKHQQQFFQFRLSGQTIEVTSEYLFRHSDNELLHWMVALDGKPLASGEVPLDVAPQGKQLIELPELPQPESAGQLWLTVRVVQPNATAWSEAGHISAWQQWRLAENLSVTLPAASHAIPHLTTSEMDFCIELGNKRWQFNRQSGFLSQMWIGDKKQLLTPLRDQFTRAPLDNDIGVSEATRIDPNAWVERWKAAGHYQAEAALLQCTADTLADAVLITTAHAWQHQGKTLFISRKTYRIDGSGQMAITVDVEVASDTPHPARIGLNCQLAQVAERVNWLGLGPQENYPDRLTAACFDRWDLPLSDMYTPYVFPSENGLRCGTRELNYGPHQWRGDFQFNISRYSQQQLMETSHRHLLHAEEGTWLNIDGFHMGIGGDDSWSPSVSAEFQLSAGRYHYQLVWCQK
Chain of Phospholipase D1 (Q13393 whole entry): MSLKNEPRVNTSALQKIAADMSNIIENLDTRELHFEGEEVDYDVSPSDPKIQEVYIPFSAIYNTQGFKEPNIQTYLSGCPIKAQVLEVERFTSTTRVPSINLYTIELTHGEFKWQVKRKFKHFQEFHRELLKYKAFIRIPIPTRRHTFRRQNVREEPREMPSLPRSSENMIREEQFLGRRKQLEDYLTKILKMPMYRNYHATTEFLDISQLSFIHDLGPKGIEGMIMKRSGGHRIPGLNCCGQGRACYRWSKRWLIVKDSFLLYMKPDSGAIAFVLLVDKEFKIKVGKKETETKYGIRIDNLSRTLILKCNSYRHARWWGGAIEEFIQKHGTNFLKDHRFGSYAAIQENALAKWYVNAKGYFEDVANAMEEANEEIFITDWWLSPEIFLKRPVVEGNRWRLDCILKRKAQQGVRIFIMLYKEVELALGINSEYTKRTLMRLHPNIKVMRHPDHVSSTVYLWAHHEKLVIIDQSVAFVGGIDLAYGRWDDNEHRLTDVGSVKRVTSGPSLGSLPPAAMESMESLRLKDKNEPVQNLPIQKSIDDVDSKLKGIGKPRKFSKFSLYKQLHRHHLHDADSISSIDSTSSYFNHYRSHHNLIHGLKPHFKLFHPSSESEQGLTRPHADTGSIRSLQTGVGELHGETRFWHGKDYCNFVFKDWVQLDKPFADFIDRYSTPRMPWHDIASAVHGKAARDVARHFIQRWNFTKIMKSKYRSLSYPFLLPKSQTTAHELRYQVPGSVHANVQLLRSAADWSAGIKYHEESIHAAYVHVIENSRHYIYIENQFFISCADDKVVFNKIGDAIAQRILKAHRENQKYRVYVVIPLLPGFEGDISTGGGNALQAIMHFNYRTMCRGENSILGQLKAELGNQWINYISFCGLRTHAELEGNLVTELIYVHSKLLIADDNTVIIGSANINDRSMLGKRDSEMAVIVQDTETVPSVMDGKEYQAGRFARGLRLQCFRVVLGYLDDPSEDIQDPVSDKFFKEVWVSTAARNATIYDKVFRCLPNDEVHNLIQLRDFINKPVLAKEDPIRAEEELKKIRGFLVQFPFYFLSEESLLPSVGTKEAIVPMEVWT
Chain of Type-1 angiotensin II receptor (P30556 whole entry): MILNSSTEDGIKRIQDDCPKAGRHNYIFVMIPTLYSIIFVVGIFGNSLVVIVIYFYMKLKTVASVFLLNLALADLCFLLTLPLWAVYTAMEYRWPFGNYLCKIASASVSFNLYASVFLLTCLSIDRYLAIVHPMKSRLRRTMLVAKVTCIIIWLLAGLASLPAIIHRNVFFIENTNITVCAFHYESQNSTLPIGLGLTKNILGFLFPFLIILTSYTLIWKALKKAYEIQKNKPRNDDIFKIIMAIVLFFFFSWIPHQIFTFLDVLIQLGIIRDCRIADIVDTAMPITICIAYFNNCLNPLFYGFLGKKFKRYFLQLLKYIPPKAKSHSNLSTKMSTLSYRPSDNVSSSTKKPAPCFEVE
Chain of Dual specificity protein kinase CLK1 (P49759 whole entry): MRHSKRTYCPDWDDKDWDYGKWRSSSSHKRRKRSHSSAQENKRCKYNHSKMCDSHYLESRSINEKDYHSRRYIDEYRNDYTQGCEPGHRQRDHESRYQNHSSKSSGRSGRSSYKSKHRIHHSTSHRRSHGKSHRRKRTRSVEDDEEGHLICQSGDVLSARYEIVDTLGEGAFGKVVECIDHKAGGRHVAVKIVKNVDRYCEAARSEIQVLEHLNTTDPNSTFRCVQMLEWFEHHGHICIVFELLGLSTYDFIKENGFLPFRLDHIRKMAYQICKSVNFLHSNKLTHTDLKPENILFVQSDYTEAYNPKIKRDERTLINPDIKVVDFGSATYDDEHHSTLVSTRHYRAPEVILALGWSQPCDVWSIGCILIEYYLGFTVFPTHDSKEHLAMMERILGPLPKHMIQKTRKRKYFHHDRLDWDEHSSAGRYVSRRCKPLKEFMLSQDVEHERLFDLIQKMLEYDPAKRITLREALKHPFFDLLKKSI
Chain of Cytochrome P450 2C19 (P33261 whole entry): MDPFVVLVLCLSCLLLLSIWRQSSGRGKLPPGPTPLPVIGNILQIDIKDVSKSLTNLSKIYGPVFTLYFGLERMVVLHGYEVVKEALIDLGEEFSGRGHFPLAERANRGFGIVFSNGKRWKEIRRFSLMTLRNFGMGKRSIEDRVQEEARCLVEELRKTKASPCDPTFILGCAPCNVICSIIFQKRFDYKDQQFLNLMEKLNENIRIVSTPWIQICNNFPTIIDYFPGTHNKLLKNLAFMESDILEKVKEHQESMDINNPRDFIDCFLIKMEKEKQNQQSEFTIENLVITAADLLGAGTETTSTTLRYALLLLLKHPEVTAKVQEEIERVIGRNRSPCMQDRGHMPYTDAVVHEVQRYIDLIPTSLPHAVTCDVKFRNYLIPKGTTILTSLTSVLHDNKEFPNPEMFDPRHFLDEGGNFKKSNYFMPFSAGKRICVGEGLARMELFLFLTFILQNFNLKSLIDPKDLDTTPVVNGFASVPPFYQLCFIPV

SMILES: O=C(c1ccc(F)cc1)N1CCN(c2ccccn2)CC1
- AC50 (Candida albicans [1]): 4.43 µM (active)
- AC50 (Candida albicans [2]): 53.2 µM (active)

SMILES: COC(=O)Nc1nnc(-c2ccccc2Cl)s1
- AC50 (HeLa): 61.8 µM (active)
- IC50 [3]: 18.9 µM (active)
- IC50 (Caspase-3 [4]): 5.86 µM (active)
- IC50 [5]: 5.89 µM (active)
- IC50 [6]: 23.6 µM (active)

SMILES: COc1cc(C(=O)Nc2cccc(-c3nncn3C)c2)cc(OC)c1OC
- AC50 [7]: 2.95 µM (active)
- AC50 [8]: 21.6 µM (active)

SMILES: Nc1nonc1C(=O)NCCNCc1c(OCc2ccccc2F)ccc2ccccc12
- EC50 [9]: 74.8 µM (inactive)
- AC50 [10]: 52.6 µM (active)
- AC50 [11]: 922 nM (active)
- EC50 (Mu-type opioid receptor): > 92.5 µM (inactive)
- EC50 [12]: > 92.5 µM (inactive)
- AC50 [13]: 14.1 µM (active)
- EC50 [14]: > 99 µM (inactive)
- EC50 [15]: > 99 µM (inactive)

SMILES: O=C(/C=C/c1ccc(Cl)cc1)Nc1ccc(N2CCCCC2)cc1
- AC50 (Cytochrome P450 2C19): inconclusive
- IC50 (HEK293 [16]): > 89.2 µM (inactive)
- EC50 (HEK293 [17]): > 54.7 µM (inactive)
- EC50 (Insulin-degrading enzyme [18]): > 54.7 µM (inactive)
- EC50 (Insulin-degrading enzyme [19]): > 54.7 µM (inactive)

SMILES: O=C(CCl)NNc1cccc(Cl)n1
- EC50 (Beta-galactosidase): > 40 µM (inactive)
- IC50 [20]: 2.72 µM (active)

SMILES: C[C@@H](CN1CCC2(CC1)C(=O)NCN2c1ccc(F)c(F)c1)NC(=O)c1cc2ccccc2[nH]1
- IC50 (Phospholipase D1): 3 nM (active)
- IC50 (Phospholipase D2): 34 nM (active)

SMILES: C(=C\c1nc(-c2cc3ccccc3cn2)no1)/c1ccccc1
- IC50 (Caspase-3 [21]): > 99 µM (inactive)
- IC50 [22]: > 99 µM (inactive)
- IC50 [23]: > 99 µM (inactive)
- IC50 [24]: > 99 µM (inactive)

SMILES: Cc1ccccc1/C=C/C1=NCCN1 [METRAZOLINE OXALATE]
- AC50 [25]: 15.8 µM (inconclusive)
